Results as given in patent publication US6906061B2, “Pharmaceutical agent containing Rho kinase inhibitor” (Mitsubishi Pharma Corporation, priority 1996, dated 2005).

Experiments:
[1] = system: normal human umberical vascular endothelial cells; test: Inhibition of angiogenesis (lumen formation in vascular endothelial cells); type: cell-based; conditions: 18 hours, compared with the control, number rises with inhibition of lumen formation
Method: Inhibition of Angiogenesis
The inhibition of angiogenesis was evaluated by using the inhibition of lumen formation in vascular endothelial cell as an index. To be specific, normal human umberical vascular endothelial cells (KURABO […] LTD.) were suspended in E-GMUV medium at 5.5×10^4 cells/ml and 400 μl therefrom was added on matrigel plate (EHS sarcoma-derived reconstructed basement membrane, Collaborative Biomedical Products). Then, the test compound (1 mM solution, 4 μl) was added and the cells were incubated at 37° C. under 5% CO2 gas for 18 hours. After the completion of the incubation, the number of lumen per predetermined area was counted under a microscope. Inasmuch as the number of lumen increases by the inhibition of lumen formation, the test compound was evaluated by comparison of the number of lumen with the control.

[2] = system: Bovine Aorta Thoracia Rho Kinase; test: Rho kinase inhibitory action (inhibition of bovine aorta thoracia Rho kinase); type: biochemical
Method: Rho Kinase Inhibitory Action (Inhibition of Bovine Aorta Thoracia Rho Kinase)
The Rho kinase was prepared from bovine aorta of thorax by partial purification as in the following. The artery was minced and homogenized with a 9-fold amount of 50 mM Tris-hydroxymethylaminomethane (Tris) (pH=7.4), 1 mM dithiothreitol, 1 mM EGTA, 1 mM EDTA, 100 μM p-amidinophenylmethylsulfonyl fluoride, 5 μM E-64, 5 μM leupeptine and 5 μM pepstatin A. The homogenate was centrifuged (10,000×g, 30 minutes) to give supernatant. The supernatant was adsorbed onto a hydroxyapatite column. The column was washed with 0.2M phosphate buffer (pH=6.8). The standard product of Rho kinase was eluted with 0.4M phosphate buffer (pH=6.8). The Rho kinase was assayed as follows.
A reaction mixture (total amount 50 μl) containing 50 mM Tris, 1 mM EDTA, 5 mM MgCl2, 50 μg/ml histone, 10 μM GTPγS, 100 μg/ml Rho, 2 μM [^32P]ATP, the Rho kinase (3 μl) prepared in the above and the test compound was reacted at 30° C. for 5 minutes. The reaction was terminated by the addition of 25% trichloroacetic acid (TCA) solution (1 ml) and the mixture was stood at 4° C. for 30 minutes. Then, the mixture was filtered through a membrane filter (HAWP type, Millipore), and the radioactivity of the filter was counted on a liquid scintillation counter. The inhibitory action of the test compound was calculated from the following formula based on the comparison of the radioactivity with the sample without the test compound (control).

[3] = system: thoractic aorta ring contracted with phenylephrine; test: Vasodilating action on phenylephrine-contracted thoracic aorta rings; conditions: Oryctolagus cuniculus; rabbit aortic ring, phenylephrine 10^−6 M contraction; concentration for 50% relaxation; read-out: Vasorelaxing action
Method: Male rabbits (body weight 1.9-3.0 kg) were anesthetized with pentobarbital sodium and exsanguinated, whereafter thoractic aorta was removed. An about 2 mm width aortic ring samples were prepared and hung in a Magnus bath (40 ml) filled with Krebs-Henseleit solution (37° C., NaCl 117 mM; KCl 4.7 mM; CaCl2 2.5 mM; MgSO4 1.2 mM; NaHCO3 24.8 mM; KH2PO4 1.2 mM; glucose 11.0 mM) at a load of 2 g. The Magnus bath was constantly bubbled with a mixed gas (95% O2+5% CO2 gas). The tension of the preparation was measured with an isomeric transducer (TB-611T, Nippon Koden). The preparation was contracted with phenylephrine (10^−6 M) and, after the contraction was stabilized, the test compound was added accumulatively and relaxing action was observed.

mouse femoral bone = test: Inhibition of bone resorption (in vitro), mouse femoral bone; conditions: 144 h, 6 days incubation of ICR mouse femoral bone
Procedure, shortened: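 Femurs from 3–6-week male ICR mice, marrow flushed, cultured 6 days in F12 with 10% FBS under 5% CO2 with test compound (DMSO-dissolved; DMSO-only controls). Calcium released into supernatant measured by o-cresolphthalein chelate method; inhibition calculated against untreated bone, n=4 per group.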

[4] = system: BALB/c spleen cells stimulated with C57BL/6 spleen cells; test: Inhibition of mouse allogenic mixed lymphocyte reaction; type: cell-based; conditions: Mus musculus, Lymphocyte, 96 h; 4 days culture, MTT; read-out: Mouse allogenic MLR inhibitory activity IC50
Method: Inhibition of Mouse Allogenic Mixed Lymphocyte Reaction
A mouse allogenic mixed lymphocyte reaction (hereinafter to be referred to as mouse allogenic MLR) was performed by mixed culture (equal ratio) of the spleen cell of BALB/c mice as the reaction cell and the spleen cell of C57BL/6 mice treated with mitomycin C as stimulated cell.
The reaction cells were prepared by the following method. Spleen was removed from 5-6 week old BALB/c mice and treated with RPMI1640 medium (containing kanamycin sulfate (60 μg/ml), penicillin G potassium (100 units/ml), N-2-hydroxyethylpiperazine-N′-2-ethanesulfonate (10 mM), 0.1% sodium hydrogencarbonate and L-glutamin (2 mM)) supplemented with 5% heat inactivated fetal bovine serum (FBS) to give a single cell suspension of the spleen cell. After hemolysis treatment, the suspension was adjusted to10^7 cells/ml with RPMI1640 medium containing 10^−4 M 2-mercaptoethanol and 10% FBS and used as a reaction cell suspension.
The reaction cell suspension (50 μl) prepared by the above method, stimulated cell suspension (50 μl) and the test compound (100 μl) prepared using RPMI1640 medium containing 10% FBS were added to a 96 well plate and incubated at 37° C. under 5% CO2 gas, 95% air for 4 days.
A pigment assay using 3-(4,5-dimethylthiazol-2-yl)-2,5-diphenyltetrazolium bromide (MTT) was applied for the determination of lymphocyte transformation reaction.
After the completion of culture, the supernatant (100 μl) in each well was removed, and 5 mg/ml MTT solution (20 μl) was added to each well, which was followed by incubation at 37° C. for 4 hours. Then, a 0.01 N hydrochloric acid solution (100 μl) containing 10% sodium dodecyl sulfate was added and the mixture was incubated at 37° C. overnight. The resulting purple crystals of formazan was dissolved and absorbance at 550 nm was measured using a microplate absorption meter, which was used as the index of lymphocyte transformation reaction of the mouse allogenic MLR. The inhibition of mouse allogenic MLR was evaluated by calculating the inhibition percentage by the following formula The results are shown in Table 7.

Compound	Number of lumen (10 μM) [1] [%]	Inhibition (%) ([2]; test compound 1 μM)	Inhibition (%) ([2]; test compound 10 μM)	IC50 [3] [nM]	inhibition at 100 µM (mouse femoral bone) [%]	IC50 [4] [nM]
CC(N)[C@H]1CC[C@H](C(=O)Nc2ccnc3[nH]ccc23)CC1 (single isomer, unassigned; (+)) [Compound 109.2HCl, (+)-trans-N-(1H-pyrrolo[2,3-b]pyridin-4-yl)-4-(1-aminoethyl)cyclohexanecarboxamide]	153	81	100	100	42.6	1600
CC(N)[C@H]1CC[C@H](C(=O)Nc2ccncc2)CC1 (single isomer, unassigned; (+)) [Compound 80.2HCl.H2O, (+)-trans-4-(1-aminoethyl)-1-(4-pyridylcarbamoyl)cyclohexane]	174		100	700	40.9	9600
